Structures are written as SMILES.

In this assay the target is T1, GR (Homo sapiens, UniProt P04150).
T1 construct: expressed in transfected cells; host or cells: CHO-K1
T1 sequence (P04150 1-777): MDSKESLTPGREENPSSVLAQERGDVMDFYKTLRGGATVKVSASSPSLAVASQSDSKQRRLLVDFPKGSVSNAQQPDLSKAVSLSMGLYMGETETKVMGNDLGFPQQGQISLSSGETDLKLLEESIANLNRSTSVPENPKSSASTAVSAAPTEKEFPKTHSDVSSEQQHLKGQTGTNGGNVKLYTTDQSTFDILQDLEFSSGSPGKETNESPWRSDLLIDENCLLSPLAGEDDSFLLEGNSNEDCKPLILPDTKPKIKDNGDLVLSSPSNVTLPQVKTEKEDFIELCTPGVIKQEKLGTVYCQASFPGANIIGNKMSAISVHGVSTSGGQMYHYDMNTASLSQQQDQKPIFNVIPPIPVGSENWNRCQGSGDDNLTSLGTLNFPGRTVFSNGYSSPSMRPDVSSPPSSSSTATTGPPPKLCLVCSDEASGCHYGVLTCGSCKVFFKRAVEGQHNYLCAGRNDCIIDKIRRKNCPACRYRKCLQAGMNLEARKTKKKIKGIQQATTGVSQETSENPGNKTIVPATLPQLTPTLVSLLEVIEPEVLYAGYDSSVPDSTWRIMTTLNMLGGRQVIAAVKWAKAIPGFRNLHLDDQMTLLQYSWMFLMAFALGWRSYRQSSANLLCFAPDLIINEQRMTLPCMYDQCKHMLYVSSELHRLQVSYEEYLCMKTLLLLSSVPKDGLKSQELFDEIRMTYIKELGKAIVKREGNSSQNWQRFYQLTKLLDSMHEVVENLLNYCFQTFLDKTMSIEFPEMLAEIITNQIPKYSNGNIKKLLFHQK
The experiment in a line: In Vitro GR Luciferase Reporter Assay (antagonist mode, CHO-K1-GR-MMTV-Luc reporter cells). Type of assay: cell-based. The settings on record: antagonist mode, 10 nM Dexamethasone. Summed up: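 Antagonist mode: compounds (8 serial 1:5 dilutions) added to GR-MMTV-luciferase CHO-K1 reporter cells co-exposed to 10 nM dexamethasone final, in phenol red-free DMEM plus 10% CSS. After roughly 18-24 h at 37° C, OneGlo luminescence read and IC50 calculated.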
On to `Cn1ccc(C(=O)N(C2CC2)[C@H]2CCC3=Cc4c(cnn4-c4ccc(F)cc4)C[C@]3(C(=O)c3cc(C(F)(F)F)ccn3)C2)n1` [Example 197, N-cyclopropyl-N-((4aS,6S)-1-(4-fluorophenyl)-4a-(4-(trifluoromethyl)picolinoyl)-4,4a,5,6,7,8-hexahydro-1H-benzo[f]indazol-6-yl)-1-methyl-1H-pyrazole-3-carboxamide], for which the IC50 is at most 100 nM.

`Cn1ncc(S(=O)(=O)N(CC2CC2)[C@H]2CCC3=Cc4c(cnn4-c4ccc(F)cc4)C[C@]3(C(=O)c3cc(C(F)(F)F)ccn3)C2)n1` [Example 200, N-(cyclopropylmethyl)-N-((4aS,6S)-1-(4-fluorophenyl)-4a-(4-(trifluoromethyl)picolinoyl)-4,4a,5,6,7,8-hexahydro-1H-benzo[f]indazol-6-yl)-2-methyl-2H-1,2,3-triazole-4-sulfonamide] registered an IC50 of at most 100 nM.

On to `O=C(c1ncc(C(F)(F)F)s1)[C@]12Cc3cnn(-c4ccc(F)cc4)c3C=C1CC[C@H](N(C1COC1)S(=O)(=O)c1ccc(F)cc1)C2` [Example 205, 4-fluoro-N-((4aS,6S)-1-(4-fluorophenyl)-4a-(5-(trifluoromethyl)thiazole-2-carbonyl)-4,4a,5,6,7,8-hexahydro-1H-benzo[f]indazol-6-yl)-N-(oxetan-3-yl)benzenesulfonamide], for which the IC50 was at most 100 nM.

Compound `Cn1cc(S(=O)(=O)N(C2COC2)[C@H]2CCC3=Cc4c(cnn4-c4ccc(F)cc4)C[C@]3(C(=O)c3ncc(C(F)(F)F)s3)C2)cn1` [Example 207, N-((4aS,6S)-1-(4-fluorophenyl)-4a-(5-(trifluoromethyl)thiazole-2-carbonyl)-4,4a,5,6,7,8-hexahydro-1H-benzo[f]indazol-6-yl)-1-methyl-N-(oxetan-3-yl)-1H-pyrazole-4-sulfonamide] showed an IC50 of at most 100 nM.

Consider `CC(C)N([C@H]1CCC2=Cc3c(cnn3-c3ccc(F)cc3)C[C@]2(C(=O)c2ncc(C(F)(F)F)s2)C1)S(=O)(=O)c1ccc(Cl)cc1` [Example 208, 4-chloro-N-((4aS,6S)-1-(4-fluorophenyl)-4a-(5-(trifluoromethyl)thiazole-2-carbonyl)-4,4a,5,6,7,8-hexahydro-1H-benzo[f]indazol-6-yl)-N-isopropylbenzenesulfonamide], for which the IC50 is at most 100 nM.

Consider `CC(C)N([C@H]1CCC2=Cc3c(cnn3-c3ccc(F)cc3)C[C@]2(C(=O)c2ncc(C(F)(F)F)s2)C1)S(=O)(=O)c1ccc(F)cc1` [Example 209, 4-fluoro-N-((4aS,6S)-1-(4-fluorophenyl)-4a-(5-(trifluoromethyl)thiazole-2-carbonyl)-4,4a,5,6,7,8-hexahydro-1H-benzo[f]indazol-6-yl)-N-isopropylbenzenesulfonamide], for which the IC50 is at most 100 nM.

`Cn1cc(S(=O)(=O)N(C2COC2)[C@H]2CCC3=Cc4c(cnn4-c4ccc(F)cc4)C[C@]3(C(=O)c3cc(C(F)(F)F)ccn3)C2)cn1` [Example 213, N-((4aS,6S)-1-(4-fluorophenyl)-4a-(4-(trifluoromethyl)picolinoyl)-4,4a,5,6,7,8-hexahydro-1H-benzo[f]indazol-6-yl)-1-methyl-N-(oxetan-3-yl)-1H-pyrazole-4-sulfonamide] yielded an IC50 of at most 100 nM.

Compound `Cn1cc(S(=O)(=O)N(C2COC2)[C@H]2CCC3=Cc4c(cnn4-c4ccc(F)cc4)C[C@]3(C(=O)c3ncc(C(F)(F)F)s3)C2)nn1` [Example 218, N-((4aS,6S)-1-(4-fluorophenyl)-4a-(5-(trifluoromethyl)thiazole-2-carbonyl)-4,4a,5,6,7,8-hexahydro-1H-benzo[f]indazol-6-yl)-1-methyl-N-(oxetan-3-yl)-1H-1,2,3-triazole-4-sulfonamide] had an IC50 of at most 100 nM.

`Cn1cc(S(=O)(=O)N(C2COC2)[C@H]2CCC3=Cc4c(cnn4-c4ccc(F)cc4)C[C@]3(C(=O)c3cc(C(F)(F)F)ccn3)C2)nn1` [Example 220, N-((4aS,6S)-1-(4-fluorophenyl)-4a-(4-(trifluoromethyl)picolinoyl)-4,4a,5,6,7,8-hexahydro-1H-benzo[f]indazol-6-yl)-1-methyl-N-(oxetan-3-yl)-1H-1,2,3-triazole-4-sulfonamide] returned an IC50 of at most 100 nM.

The compound `Cn1cc(S(=O)(=O)N(C2CCC2)[C@H]2CCC3=Cc4c(cnn4-c4ccc(F)cc4)C[C@]3(C(=O)c3cc(C(F)(F)F)ccn3)C2)cn1` [Example 235, N-cyclobutyl-N-((4aS,6S)-1-(4-fluorophenyl)-4a-(4-(trifluoromethyl)picolinoyl)-4,4a,5,6,7,8-hexahydro-1H-benzo[f]indazol-6-yl)-1-methyl-1H-pyrazole-4-sulfonamide] displayed an IC50 of at most 100 nM.

As to `O=C(c1cc(C(F)(F)F)ccn1)[C@]12Cc3cnn(-c4ccc(F)cc4)c3C=C1CC[C@H](N(C1CCCC1)S(=O)(=O)c1ccc(F)cc1)C2` [Example 237, N-cyclopentyl-4-fluoro-N-((4aS,6S)-1-(4-fluorophenyl)-4a-(4-(trifluoromethyl)picolinoyl)-4,4a,5,6,7,8-hexahydro-1H-benzo[f]indazol-6-yl)benzenesulfonamide], the IC50 is at most 100 nM.

The compound `Cn1ccc(S(=O)(=O)N(C2CCCC2)[C@H]2CCC3=Cc4c(cnn4-c4ccc(F)cc4)C[C@]3(C(=O)c3cc(C(F)(F)F)ccn3)C2)n1` [Example 238, N-cyclopentyl-N-((4aS,6S)-1-(4-fluorophenyl)-4a-(4-(trifluoromethyl)picolinoyl)-4,4a,5,6,7,8-hexahydro-1H-benzo[f]indazol-6-yl)-1-methyl-1H-pyrazole-3-sulfonamide] yielded an IC50 of at most 100 nM.

For the compound `Cn1ncc(S(=O)(=O)N(C2COC2)[C@H]2CCC3=Cc4c(cnn4-c4ccc(F)cc4)C[C@]3(C(=O)c3cc(C(F)(F)F)ccn3)C2)n1` [Example 239, N-((4aS,6S)-1-(4-fluorophenyl)-4a-(4-(trifluoromethyl)picolinoyl)-4,4a,5,6,7,8-hexahydro-1H-benzo[f]indazol-6-yl)-2-methyl-N-(oxetan-3-yl)-2H-1,2,3-triazole-4-sulfonamide], the IC50 is at most 100 nM.

Turning to `O=C(c1ccc(Cl)cn1)[C@]12Cc3cnn(-c4ccc(F)cc4)c3C=C1CC[C@H](N(C1CC1)S(=O)(=O)c1ccc(F)cc1)C2` [Example 240, N-((4aS,6S)-4a-(5-chloropicolinoyl)-1-(4-fluorophenyl)-4,4a,5,6,7,8-hexahydro-1H-benzo[f]indazol-6-yl)-N-cyclopropyl-4-fluorobenzenesulfonamide], the IC50 is at most 100 nM.

Regarding `CC(C)CN([C@H]1CCC2=Cc3c(cnn3-c3ccc(F)cc3)C[C@]2(C(=O)c2cc(Cl)ccn2)C1)S(=O)(=O)c1ccn(C)n1` [Example 249, N-((4aS,6S)-4a-(4-chloropicolinoyl)-1-(4-fluorophenyl)-4,4a,5,6,7,8-hexahydro-1H-benzo[f]indazol-6-yl)-N-isobutyl-1-methyl-1H-pyrazole-3-sulfonamide], the IC50 is at most 100 nM.

Compound `CC(C)CN([C@H]1CCC2=Cc3c(cnn3-c3ccc(F)cc3)C[C@]2(C(=O)c2cc(F)ccn2)C1)S(=O)(=O)c1ccn(C)n1` [Example 252, N-((4aS,6S)-1-(4-fluorophenyl)-4a-(4-fluoropicolinoyl)-4,4a,5,6,7,8-hexahydro-1H-benzo[f]indazol-6-yl)-N-isobutyl-1-methyl-1H-pyrazole-3-sulfonamide] registered an IC50 of at most 100 nM.

Take `O=C(c1cc(C(F)(F)F)ccn1)[C@]12Cc3cnn(-c4ccc(F)cc4)c3C=C1CC[C@H](N(C1CCC1)S(=O)(=O)c1ccn(C(F)F)n1)C2` [Example 253, N-cyclobutyl-1-(difluoromethyl)-N-((4aS,6S)-1-(4-fluorophenyl)-4a-(4-(trifluoromethyl)picolinoyl)-4,4a,5,6,7,8-hexahydro-1H-benzo[f]indazol-6-yl)-1H-pyrazole-3-sulfonamide]: the IC50 was at most 100 nM.

As to `Cn1ncc(S(=O)(=O)N(C2CCC2)[C@H]2CCC3=Cc4c(cnn4-c4ccc(F)cc4)C[C@]3(C(=O)c3cc(C(F)(F)F)ccn3)C2)n1` [Example 256, N-cyclobutyl-N-((4aS,6S)-1-(4-fluorophenyl)-4a-(4-(trifluoromethyl)picolinoyl)-4,4a,5,6,7,8-hexahydro-1H-benzo[f]indazol-6-yl)-2-methyl-2H-1,2,3-triazole-4-sulfonamide], the IC50 was at most 100 nM.

Consider `Cn1ccc(S(=O)(=O)[C@H]2CCC3=Cc4c(cnn4-c4ccc(F)cc4)C[C@]3(C(=O)c3ncc(C(F)(F)F)s3)C2)n1` [Example 264, ((4aS,6S)-1-(4-fluorophenyl)-6-((1-methyl-1H-pyrazol-3-yl)sulfonyl)-1,4,5,6,7,8-hexahydro-4aH-benzo[f]indazol-4a-yl)(5-(trifluoromethyl)thiazol-2-yl)methanone], for which the IC50 is at most 100 nM.

The values are drawn from patent publication US20210122730A1, “GLUCOCORTICOID RECEPTOR MODULATORS” (ORIC Pharmaceuticals, Inc., priority 2017, published 2021).
